Experimental data from patent US10806746B2, “Di- and tri-cationic glycosylated antitumor ether lipids, L-gucosylated gaels and rhamnose-linked gaels as cytotoxic agents against epithelial cancer cells and cancer stem cells” (The University of Manitoba, priority 2014, dated 2020).
Like-named read-outs stand apart in the source and are kept apart here.

Tests used:
Format in all cases: cell-based, human
PC3 cells = test: MTS viability assay, PC3 prostate cancer cells; conditions: 48 h, MTS
Method: (§1) FIG. 2E. Effects of compounds 1-11 on the viability of PC3 cells. PC3 cells were cultured in F12K medium supplemented with 10% FBS. Equal numbers were dispersed into 96-well plates. After 24 h, the cells were incubated with compounds 1-11 (0-30 μM) for 48 h. At the end of the incubation, MTS reagent (20% vol/vol) was added and the plates were incubated for 1-4 h. The OD490 was read with a plate reader. Wells with media but no cells were treated in similar fashion and the values utilized as blank. The results represent the mean±standard deviation of 6 independent determinations.
(§2) The cell lines were cultured from frozen stocks originally obtained from ATCC. MDA-MB-231, JIMT-1, DU145, U81, U251 cells were grown in DMEM medium. BT474, A2780s, A2780cp cells were grown in DMEM/F12 medium supplemented with 10% FBS. MiaPaCa2 was cultured in DMEM supplemented with 10% FBS and 2.5% horse serum. PC3 cells were cultured in F12K medium supplemented with 10% FBS. All the media were supplemented with penicillin/streptomycin.
(§3) The effects of the GAELs on the viability of the various epithelial cancer cell lines was determined as previously described. Briefly, equal numbers of the cells were dispersed into 96-well plates. After 24 h, the cells were incubated with the compounds (0-30 μM) for 48 h. At the end of the incubation, MTS reagent (20% vol/vol) was added and the plates were incubated for 1-4 h. The OD490 was read with a plate reader. Wells with media but no cells were treated in similar fashion and the values utilized as blank. The results represent the mean±standard deviation of 6 independent determinations.

JIMT-1 cells = test: MTS viability assay, JIMT-1 breast cancer cells
Method: as §1, with “2B.” for “2E.”, “JIMT-1” for “PC3”, “DMEM” for “F12K”
as §1, with “2J.” for “2E.”, “1, 69-72” for “1-11”, “JIMT-1” for “PC3”, “DMEM” for “F12K”, “1, 69-72” for “1-11 (0-30 μM)”
as §2, §3

[1] = tested on: BT-474, JIMT-1, MDA-MB-231 (breast), DU145, PC3 (prostate), MiaPaCa2 (pancreas); test: MTS viability, panel of epithelial cancer cell lines (ranges over the cell lines)
Method: To determine the effect of compounds 1-10 on the viability of the epithelial cancer cell lines, exponentially growing cells, BT-474, JIMT-1, MDA-MB-231 (breast), DU145, PC3 (prostate), MiaPaCa2 (pancreas) were incubated with varying concentrations of 1-8 (0-30 μM) for 48 h followed by viability assays with the MTS reagent.
as §3

BT-474 cells = test: MTS viability assay, BT-474 breast cancer cells; conditions: 48 h, MTS
Method: as §1, with “2C.” for “2E.”, “BT-474” for “PC3”, “DMEM/F12” for “F12K”
as §2, §3

DU145 cells = test: MTS viability assay, DU145 prostate cancer cells
Method: as §1, with “2D.” for “2E.”, “DU145” for “PC3”, “DMEM” for “F12K”
as §1, with “2H. Effect” for “2E. Effects”, “1, 69-72” for “1-11”, “DU145” for “PC3”, “DMEM” for “F12K”, “1, 69-72” for “1-11 (0-30 μM)”
as §2, §3

MiaPaCa2 cells = test: MTS viability assay, MiaPaCa2 pancreas cancer cells
Method: as §1, with “2F.” for “2E.”, “MiaPaCa2” for “PC3”, “DMEM” for “F12K”, “FBS and 2.5% horse serum.” for “FBS.”
as §1, with “2I.” for “2E.”, “1, 69-72” for “1-11”, “MiaPaCa2” for “PC3”, “DMEM” for “F12K”, “FBS and 2.5% horse serum.” for “FBS.”, “1, 69-72” for “1-11 (0-30 μM)”
as §2, §3

MDA-MB-231 cells = test: MTS viability assay, MDA-MB-231 breast cancer cells
Method: as §1, with “FIG. 2A.” for “FIG. 2E.”, “of MDA-MB231” for “of PC3”, “cells. MDA-MB-231” for “cells. PC3”, “in DMEM” for “in F12K”
as §1, with “2K.” for “2E.”, “1, 69-72” for “1-11”, “MDA-MB-231” for “PC3”, “DMEM” for “F12K”, “1, 69-72” for “1-11 (0-30 μM)”
as §2, §3

[2] = Table 1A, read-out: CC50 values PC3
[3] = Table 1B, read-out: CC90 values PC3
[4] = Table 1A, 48 h, read-out: CC50 values JIMT1
[5] = Table 1B, 48 h, read-out: CC90 values JIMT1
[6] = Table 1B, read-out: CC90 values BT474
[7] = Table 1A, 48 h, read-out: CC50 values DU 145
[8] = Table 1B, 48 h, read-out: CC90 values DU 145
[9] = Table 1A, 48 h, read-out: CC50 values MiaPaCa2
[10] = Table 1B, 48 h, read-out: CC90 values MiaPaCa2
[11] = Table 1A, 48 h, read-out: CC50 values MD 231
[12] = Table 1B, 48 h, read-out: CC90 values MD 231
[13] = Table 6, 48 h, read-out: JIMT1 CC50
[14] = Table 6, 48 h, read-out: JIMT1 CC90
[15] = Table 6, 48 h, read-out: DU145 CC50
[16] = Table 6, 48 h, read-out: DU145 CC90
[17] = Table 6, 48 h, read-out: MiaPaCa2 CC50
[18] = Table 6, 48 h, read-out: MiaPaCa2 CC90
[19] = Table 6, 48 h, read-out: MB-MDA-231 CC50
[20] = Table 6, 48 h, read-out: MB-MDA-231 CC90

Structure (SMILES) | CC50 (PC3 cells; [2]) [µM] | CC90 (PC3 cells; [3]) [µM] | CC50 (JIMT-1 cells; [4]) [µM] | CC90 (JIMT-1 cells; [5]) [µM] | CC90 (BT-474 cells; [6]) [µM] | CC50 (DU145 cells; [7]) [µM] | CC90 (DU145 cells; [8]) [µM] | CC50 (MiaPaCa2 cells; [9]) [µM] | CC90 (MiaPaCa2 cells; [10]) [µM] | CC50 (MDA-MB-231 cells; [11]) [µM] | CC90 (MDA-MB-231 cells; [12]) [µM] | CC50 (PC3 cells; Table 6, read-out: PC3 CC50) [µM] | CC90 (PC3 cells; Table 6, read-out: PC3 CC90) [µM] | CC50 (JIMT-1 cells; [13]) [µM] | CC90 (JIMT-1 cells; [14]) [µM] | CC50 (BT-474 cells; Table 6, read-out: BT474 CC50) [µM] | CC90 (BT-474 cells; Table 6, read-out: BT474 CC90) [µM] | CC50 (DU145 cells; [15]) [µM] | CC90 (DU145 cells; [16]) [µM] | CC50 (MiaPaCa2 cells; [17]) [µM] | also measured
CCCCCCCCCCCCCCCCOCC(CO[C@@H]1O[C@H](CO)[C@@H](O)[C@H](O)[C@H]1N)NC(=O)CCCCCCCCCCCCCCC (stereo partly drawn) [Compound 9, 1-O-Hexadecyloxy-2S/R—N-hexadecylacyl-3-(-2′-amino-2′-deoxy-β-D-glucopyranosyl)-glycerol] | > 30 | > 30 | > 30 | > 30 | > 30 | > 30 | > 30 | > 30 | > 30 | > 30 | > 30 |  |  |  |  |  |  |  |  |  | activity at the highest concentration tested ([1]; 30 μM, all the cell lines tested): not active; CC50 (BT-474 cells; Table 1A, read-out: CC50 values BT474): > 30 µM
CCCCCCCCCCCCCCCCOC[C@H](CO[C@@H]1O[C@H](CN)[C@@H](O)[C@H](O)[C@H]1N)OC [Compound 2, 1-O-Hexadecyl-2-O-methyl-3-O-(-2′,6′-diamino-2′,6′-dideoxy-β-D-glucopyranosyl)-sn-glycerol] | 11 | 14 | 4.2 | 6.5 | 14 | 6 | 8.5 | 7 | 12 | 5.5 | 7 |  |  |  |  |  |  |  |  |  | CC50 ([1]; range over the cell lines tested, 48 h, read-out: CC50 values, range depending on the cell line): 4.2 to 11.5 µM
CCCCCCCCCCCCCCCCOC[C@H](COC1O[C@H](CN)[C@@H](O)[C@H](O)[C@H]1NCCCCCCCCCCCCN)OC (some centres unmarked) [Compound 75, 1-O-Hexadecyl-2-O-methyl-3-O-[2′-N-(12-aminododecyl)-2′,6′-diamino-2′,6′-dideoxy-glucopyranoside]-sn-glycerol] |  |  |  |  |  |  |  |  |  |  |  | 8.5 | 11.5 | 8 | 9.5 | 13.5 | 16.5 | 7.5 | 9.5 | 8.5 | cytotoxicity against all cell lines examined ([1]; tricationic GAELs, FIG. 2O, Table 6): cytotoxic; CC90 (MiaPaCa2 cells; [18]): 12 µM; CC50 (MDA-MB-231 cells; [19]): 5.5 µM; CC90 (MDA-MB-231 cells; [20]): 9.5 µM
CCCCCCCCCCCCCCCCOC[C@H](COC1O[C@H](CN)[C@@H](O)[C@H](O)[C@H]1NCCCN)OC (some centres unmarked) [Compound 76, 1-O-Hexadecyl-2-O-methyl-3-O-[2′-N-(3-aminopropyl)-2′,6′-diamino-2′,6′-dideoxy-glucopyranoside]-sn-glycerol] |  |  |  |  |  |  |  |  |  |  |  | 14.5 | > 20 | 12.5 | 16.5 | > 20 | > 20 | 18.5 | > 20 | 14.5 | CC90 (MiaPaCa2 cells; [18]): > 20 µM; CC50 (MDA-MB-231 cells; [19]): 17.5 µM; CC90 (MDA-MB-231 cells; [20]): > 20 µM
